Measurements taken from patent US11370847B2, “Single domain antibodies directed against intracellular antigens” (Singh Biotechnology, LLC, priority 2014, dated 2022).
Several values for one entry are separate records, joined by “and”; a condition that tells them apart may be missing. Equal entries are not always repeated. Where two headings read alike, the source gives them in different places.

Key:
MDA-MB-231 xenograft = conditions: for % Inhibition Mean / % Inhibition Median / Tumor Mean Absolute / Tumor Median Absolute / Individual Tumor Measurements: Group 4, 2 mg/kg IP QD×14; for Individual Tumor Measurements: listed as anti-STAT3 bacterial VHH13
MDA-MB 231 cells = test: Internalization of sdAb, anti-His staining, MDA-MB 231; assay type: cell-based; conditions: 18 hours after sdAb addition
Protocol: The next day, the chambers were rinsed with fresh media and STAT3 VHH13 (SEQ ID NO:3) sdAb (diluted 1:10 in media) or TNF-α VHH66 (SEQ ID NO:45) sdAb was added to the chamber. An anti-HIV-1 Reverse Transcriptase (RT) sdAb was used as a negative control.
The slides were incubated for 18 hours after sdAb addition. The chambers were briefly rinsed with media and fixed in ice-cold methanol for 5-10 min. The chambers were then dried and stained with a fluorescent anti-His tag antibody (1:200) (Novus Biologicals, Littleton, Colo.) for 45 min at room temperature. The slides were rinsed in PBS for 5 minutes and mounted.

MCF-7 xenograft = conditions: for Caliper Measurement W / Caliper Measurement L / Tumor Volume TV: individual animals; for Caliper Measurement W / Caliper Measurement L / Tumor Volume TV / Tumor Volume TV, group Mean: VHH13 1 mg/kg ip tid × 14
[1] = Group 2, 1 mg/kg ip tid × 14 first Day 2 doses

anti-STAT3 VHH13: anti-STAT3 single-domain antibody, SEQ ID NO:3; bacterially produced, referred to as SBT-100
mean tumor size (±S.E.) at termination (day 42) (MDA-MB-231 xenograft; Group 3: 2 mg/kg bw IP BID×14): 41.15±13.21
mean tumor size (±SE) at day 14 of dosing (MDA-MB-231 xenograft; Group 3: 2 mg/kg bw IP BID×14): 58.27±22.54
% treatment/control (MDA-MB-231 xenograft; Group 3: 2 mg/kg bw IP BID×14, (tumor regression)): −54.4%
tumor doubling time (MDA-MB-231 xenograft; Group 3: 2 mg/kg bw IP BID×14, control 20.56 days): 30.07 days
% Inhibition Mean (MDA-MB-231 xenograft; day 20 (6/23/15)): −14.18%
% Inhibition Median (MDA-MB-231 xenograft; day 20 (6/23/15)): −1.80%
Tumor Mean Absolute (MDA-MB-231 xenograft; day 20 (6/23/15)): 105.60 mm^3
Tumor Median Absolute (MDA-MB-231 xenograft; day 20 (6/23/15)): 100.88 mm^3
Individual Tumor Measurements (MDA-MB-231 xenograft; day 20 (6/23/15)): 88.56 mm^3 and 78.73 mm^3 and 113.20 mm^3 and 141.91 mm^3
% Inhibition Mean (MDA-MB-231 xenograft; day 23 (6/26/15)): 32.37%
% Inhibition Median (MDA-MB-231 xenograft; day 23 (6/26/15)): 16.23%
Tumor Mean Absolute (MDA-MB-231 xenograft; day 23 (6/26/15)): 93.99 mm^3
Tumor Median Absolute (MDA-MB-231 xenograft; day 23 (6/26/15)): 96.82 mm^3
Individual Tumor Measurements (MDA-MB-231 xenograft; day 23 (6/26/15)): 108.35 mm^3 and 51.51 mm^3 and 85.29 mm^3 and 130.82 mm^3
% Inhibition Mean (MDA-MB-231 xenograft; day 26 (6/29/15)): 54.06%
% Inhibition Median (MDA-MB-231 xenograft; day 26 (6/29/15)): 43.65%
Tumor Mean Absolute (MDA-MB-231 xenograft; day 26 (6/29/15)): 79.20 mm^3
Tumor Median Absolute (MDA-MB-231 xenograft; day 26 (6/29/15)): 78.40 mm^3
Individual Tumor Measurements (MDA-MB-231 xenograft; day 26 (6/29/15)): 105.80 mm^3 and 54.20 mm^3 and 69.30 mm^3 and 87.49 mm^3
% Inhibition Mean (MDA-MB-231 xenograft; day 29 (7/2/15)): 46.13%
% Inhibition Median (MDA-MB-231 xenograft; day 29 (7/2/15)): 38.19%
Tumor Mean Absolute (MDA-MB-231 xenograft; day 29 (7/2/15)): 105.54 mm^3
Tumor Median Absolute (MDA-MB-231 xenograft; day 29 (7/2/15)): 103.05 mm^3
Individual Tumor Measurements (MDA-MB-231 xenograft; day 29 (7/2/15)): 102.94 mm^3 and 70.39 mm^3 and 103.16 mm^3 and 145.68 mm^3
% Inhibition Mean (MDA-MB-231 xenograft; day 33 (7/6/15)): 40.66%
% Inhibition Median (MDA-MB-231 xenograft; day 33 (7/6/15)): 36.92%
Tumor Mean Absolute (MDA-MB-231 xenograft; day 33 (7/6/15)): 131.44 mm^3
Tumor Median Absolute (MDA-MB-231 xenograft; day 33 (7/6/15)): 129.05 mm^3
Individual Tumor Measurements (MDA-MB-231 xenograft; day 33 (7/6/15)): 183.39 mm^3 and 84.29 mm^3 and 103.20 mm^3 and 154.89 mm^3
% Inhibition Mean (MDA-MB-231 xenograft; day 36 (7/9/15)): 55.94%
% Inhibition Median (MDA-MB-231 xenograft; day 36 (7/9/15)): 54.32%
Tumor Mean Absolute (MDA-MB-231 xenograft; day 36 (7/9/15)): 105.10 mm^3
Tumor Median Absolute (MDA-MB-231 xenograft; day 36 (7/9/15)): 102.39 mm^3
Individual Tumor Measurements (MDA-MB-231 xenograft; day 36 (7/9/15)): 159.78 mm^3 and 55.83 mm^3 and 87.15 mm^3 and 117.63 mm^3
% Inhibition Mean (MDA-MB-231 xenograft; day 42 (7/15/15)): 43.03%
% Inhibition Median (MDA-MB-231 xenograft; day 42 (7/15/15)): 48.55%
Tumor Mean Absolute (MDA-MB-231 xenograft; day 42 (7/15/15)): 145.51 mm^3
Tumor Median Absolute (MDA-MB-231 xenograft; day 42 (7/15/15)): 124.47 mm^3
Individual Tumor Measurements (MDA-MB-231 xenograft; day 42 (7/15/15)): 291.06 mm^3 and 42.03 mm^3 and 130.64 mm^3 and 118.31 mm^3
growth delay (MDA-MB-231 xenograft; Group 4: 2 mg/kg bw IP QD×14): 6.61 days
mean growth inhibition (MDA-MB-231 xenograft; Group 4: 2 mg/kg bw IP QD×14): 55.9
mean tumor size (±S.E.) at termination (day 42) (MDA-MB-231 xenograft; Group 4: 2 mg/kg bw IP QD×14): 145.51±52.32
mean tumor size (±SE) at day 14 of dosing (MDA-MB-231 xenograft; Group 4: 2 mg/kg bw IP QD×14): 131.44±22.86
% treatment/control (MDA-MB-231 xenograft; Group 4: 2 mg/kg bw IP QD×14, (tumor inhibition)): 10.28%
tumor doubling time (MDA-MB-231 xenograft; Group 4: 2 mg/kg bw IP QD×14, control 20.56 days): 27.17 days
mean tumor size (±S.E.) at termination (day 28) (MDA-MB-231 xenograft; SBT-100 5 mg/kg bw i.p. BID×14): 91.72±33.17
mean tumor size (±SE) at last day of dosing (Day 14) (MDA-MB-231 xenograft; SBT-100 5 mg/kg bw i.p. BID×14): 83.81±22.65
% treatment/control (MDA-MB-231 xenograft; SBT-100 5 mg/kg bw i.p. BID×14, (tumor inhibition)): 13.35%
tumor doubling time (MDA-MB-231 xenograft; SBT-100 5 mg/kg bw i.p. BID×14, control […] days): 111.6 days
mean tumor growth inhibition at the end of the study (MDA-MB-231 xenograft; SBT-100 5 mg/kg bw i.p. BID×14, p=0.006): 85.8%
staining with fluorescent anti-His tag antibody (MDA-MB 231 cells): positive cytoplasmic staining
time for the group to reach a tumor volume of 1000 mm^3 (MCF-7 xenograft; 1 mg/kg ip tid x 14, control group 25 days): 36 days
Caliper Measurement W (MCF-7 xenograft; Day 1): 6 mm
Caliper Measurement L (MCF-7 xenograft; Day 1, 1 mg/kg): 6 mm (2×) and 7 mm (2×)
Tumor Volume TV (MCF-7 xenograft; Day 4 (Jul. 30, 2015), 1 mg/kg): 196 mm^3 and 126 mm^3 and 144 mm^3
Caliper Measurement L (MCF-7 xenograft; Day 4, 1 mg/kg): 8 mm (2×) and 7 mm
Caliper Measurement W (MCF-7 xenograft; Day 4, 1 mg/kg): 7 mm and 6 mm (2×)
Caliper Measurement L (MCF-7 xenograft; Day 8, 1 mg/kg): 8 mm
Caliper Measurement W (MCF-7 xenograft; Day 8, 1 mg/kg): 7 mm
Caliper Measurement L (MCF-7 xenograft; Day 11, 1 mg/kg): 8 mm
Caliper Measurement W (MCF-7 xenograft; Day 11, 1 mg/kg): 9 mm and 7 mm
Tumor Volume TV, group Mean (MCF-7 xenograft; Day 15): 346.5 mm^3
Caliper Measurement L (MCF-7 xenograft; Day 15, 1 mg/kg): 9 mm
Caliper Measurement W (MCF-7 xenograft; Day 15, 1 mg/kg): 9 mm
Tumor Volume TV (MCF-7 xenograft; Day 15, 1 mg/kg): 405 mm^3 and 288 mm^3
Caliper Measurement L (MCF-7 xenograft; Day 18, 1 mg/kg): 9 mm
Caliper Measurement W (MCF-7 xenograft; Day 18, 1 mg/kg): 9 mm
Caliper Measurement L (MCF-7 xenograft; Day 22, 1 mg/kg): 11 mm
Caliper Measurement W (MCF-7 xenograft; Day 22, 1 mg/kg): 9 mm
Caliper Measurement L (MCF-7 xenograft; Day 25, 1 mg/kg): 12 mm
Caliper Measurement W (MCF-7 xenograft; Day 25, 1 mg/kg): 12 mm and 9 mm
Caliper Measurement L (MCF-7 xenograft; Day 29, 1 mg/kg): 13 mm
Caliper Measurement W (MCF-7 xenograft; Day 29, 1 mg/kg): 13 mm
Tumor Volume TV, group Mean (MCF-7 xenograft; Day 32): 500 mm^3
Tumor Volume TV (MCF-7 xenograft; Day 32): 500 mm^3
Caliper Measurement L (MCF-7 xenograft; Day 36): 12 mm
Caliper Measurement W (MCF-7 xenograft; Day 36): 12 mm
Caliper Measurement L (MCF-7 xenograft; Day 39): 13 mm
Caliper Measurement W (MCF-7 xenograft; Day 39): 13 mm
% TGD (MCF-7 xenograft; [1]): 42%
T-C (MCF-7 xenograft; [1]): 9.7
